We go through 22 compounds from patent US11866407B2 (priority 2021, dated 2024).

Where two headings read alike, the source gives them in different places. Residues, ends and D or L forms follow the SMILES beside them. *: point of attachment. Cbz = O=C(OCc1ccccc1)*; CH2F = FC*

The test system of series [1] is SARS-CoV-2. The experiment in a line: Antiviral activity in Calu-3 cells (Table 2). The series is classed as cell-based. Conditions: Severe acute respiratory syndrome coronavirus 2, Calu-3.
The target in a further series is SARS-CoV-2 M^pro (Severe acute respiratory syndrome coronavirus 2, UniProt P0DTD1). The series can be described thus: FRET-based enzymatic assay, SARS-CoV-2 Mpro. The series is classed as biochemical.
Series [2] in a line: in vitro. The conditions noted are these: African green monkey.
Series [3] can be described thus: Cytotoxicity in Calu-3 cells. In kind it is cell-based. The conditions noted are these: human.
The nature of series [4]: Cytotoxicity in Vero E6 cells. Conditions: African green monkey.
The next series has as its target PL^pro (Severe acute respiratory syndrome coronavirus 2, UniProt P0DTD1). The experiment in a line: PLpro protease inhibition (Table 2). The series is classed as biochemical, SARS-CoV-2.
Series [5] can be described thus: in vitro. The conditions noted are these: human, Caco-2.
Series [6] is described as follows: in vitro. The conditions noted are these: human.
The next series concerns the target T1, cathepsin L (Homo sapiens, UniProt P07711).
T1 construct: purchased EMD Millipore 219402
The series can be described thus: Cathepsin L enzymatic assay. The series is classed as biochemical. The procedure: (§1) Calpain I, Cathepsin L and Cathepsin K enzymatic assays were carried as previously described.^33

For a further series, the target named is T2, calpain I (Homo sapiens, UniProt P07384).
T2 construct: purchased Sigma-Aldrich C6108
T2 sequence (P07384 1-714): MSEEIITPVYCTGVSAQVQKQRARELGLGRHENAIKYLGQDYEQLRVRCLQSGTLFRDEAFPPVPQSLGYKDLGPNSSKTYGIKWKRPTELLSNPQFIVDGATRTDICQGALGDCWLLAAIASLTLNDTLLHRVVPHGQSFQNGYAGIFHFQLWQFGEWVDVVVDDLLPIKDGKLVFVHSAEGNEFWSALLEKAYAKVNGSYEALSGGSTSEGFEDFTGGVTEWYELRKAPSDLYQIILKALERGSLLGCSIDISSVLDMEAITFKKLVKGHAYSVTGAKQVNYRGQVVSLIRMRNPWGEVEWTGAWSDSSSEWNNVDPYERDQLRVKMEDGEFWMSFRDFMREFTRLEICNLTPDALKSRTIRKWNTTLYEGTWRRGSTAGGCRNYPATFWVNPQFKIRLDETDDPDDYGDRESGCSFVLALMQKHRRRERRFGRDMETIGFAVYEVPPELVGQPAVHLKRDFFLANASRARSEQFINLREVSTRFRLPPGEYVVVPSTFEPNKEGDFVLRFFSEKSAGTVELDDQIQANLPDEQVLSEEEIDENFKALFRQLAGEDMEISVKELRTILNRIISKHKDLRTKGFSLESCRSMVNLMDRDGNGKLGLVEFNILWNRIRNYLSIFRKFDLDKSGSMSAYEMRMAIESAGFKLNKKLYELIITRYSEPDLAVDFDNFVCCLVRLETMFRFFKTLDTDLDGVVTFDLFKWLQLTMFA
T2 sequence (P04632 1-268 partner): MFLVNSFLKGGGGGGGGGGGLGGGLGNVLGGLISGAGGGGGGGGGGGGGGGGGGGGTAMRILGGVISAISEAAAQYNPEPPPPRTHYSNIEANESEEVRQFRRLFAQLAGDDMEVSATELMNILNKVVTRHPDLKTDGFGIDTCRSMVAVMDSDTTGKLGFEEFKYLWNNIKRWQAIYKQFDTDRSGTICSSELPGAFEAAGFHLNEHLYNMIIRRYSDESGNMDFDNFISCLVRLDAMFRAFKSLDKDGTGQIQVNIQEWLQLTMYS
The experiment in a line: Calpain I enzymatic assay. The series is classed as biochemical. The procedure:
as §1

The subject of a further series is HCoV-NL63. The series can be described thus: HCoV-NL63 CPE assay. In kind it is cell-based. Conditions: with vs without CP-100356.
The next series deals with HCoV-229E. The experiment in a line: HCoV-229E CPE assay. The series is classed as cell-based. The conditions noted are these: Human coronavirus 229E.
The test system of a further series is HCoV-OC43. The experiment in a line: HCoV-OC43 plaque assay. The series is classed as cell-based. The conditions noted are these: Betacoronavirus 1, OC43, RD cells.
The target in another series is T3, caspase-3 (Homo sapiens, UniProt P42574).
T3 construct: purchased BioVision 1083-25
T3 sequence (P42574 29-175 limits assumed): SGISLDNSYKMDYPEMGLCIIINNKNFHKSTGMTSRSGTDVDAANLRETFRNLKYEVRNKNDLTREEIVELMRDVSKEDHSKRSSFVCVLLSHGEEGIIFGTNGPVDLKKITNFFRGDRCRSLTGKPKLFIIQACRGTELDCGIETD
T3 sequence (P42574 176-277 limits assumed): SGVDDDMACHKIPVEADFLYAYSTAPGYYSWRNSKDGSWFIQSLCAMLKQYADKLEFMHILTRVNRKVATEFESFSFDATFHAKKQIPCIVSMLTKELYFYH
The series can be described thus: Caspase-3 enzymatic assay. In kind it is biochemical. On the procedure:
Caspase-3 enzymatic assay was carried out as follows: 1 unit Caspase-3 protein was diluted into 1600 μl reaction buffer (20 mM HEPES pH7.4, 2 mM EDTA, 0.1% CHAPS and 5 mM DTT); 100 μl diluted protein was incubated with 1 μl various concentration of testing compounds for 30 min at 30° C.; the enzymatic reaction was initiated by adding 1 μl of 2 mM Ac-DEVD-AFC (Medchemexpress, Catalog #HY-P1005). The reaction was monitored a Molecular Devices SpectraMax iD3 plate reader with excitation at 400 nm and emission at 505 nm at 30° C. for 1 hour. The IC50 values were calculated as described in the previous section.

Series [7] concerns SARS-CoV-2. The series can be described thus: SARS-CoV-2 antiviral immunofluorescence assay. The conditions noted are these: both cell lines (Vero E6 and Caco2-ACE2). In kind it is cell-based.
In series [8] the test system is M^pros from all seven human coronaviruses. The experiment in a line: Thermal shift binding assay (DSF). Conditions: indicating protein stabilization.

T1 sequence (P07711 114-333): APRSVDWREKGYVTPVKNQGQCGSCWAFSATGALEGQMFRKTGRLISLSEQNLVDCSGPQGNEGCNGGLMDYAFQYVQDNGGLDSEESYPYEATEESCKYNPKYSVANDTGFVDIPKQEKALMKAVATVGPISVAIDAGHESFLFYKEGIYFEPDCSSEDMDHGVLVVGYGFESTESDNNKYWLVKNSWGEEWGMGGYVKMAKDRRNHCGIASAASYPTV

A word on the EC50: it is the concentration giving half of the maximal effect. What is called IC50 is the midpoint of a concentration-inhibition curve. The compound `CC(C)C[C@H](NC(=O)OCC1CCC(F)(F)CC1)C(=O)N[C@@H](C[C@@H]1CCNC1=O)C(=O)C(=O)NC1CC1` showed an EC50 with SARS-CoV-2 [1] of 2600 nM. This compound gave an IC50 against SARS-CoV-2 M^pro of 60 nM. The same compound came in with a CC50 in “in vitro [2]” of over 250000 nM.

Turning to `C#CCCC(=O)Nc1ccc(COC(=O)N[C@@H](CC(C)C)C(=O)N[C@@H](C[C@@H]2CCNC2=O)C(=O)C(=O)NC2CC2)cc1`, the CC50 in series [3] and in [4] was over 250000 nM in each case. For the same compound, the IC50 was over 20000 nM against PL^pro and 150 nM on SARS-CoV-2 M^pro.

Consider `O=C(N[C@@H](Cc1ccccc1)C(=O)N[C@@H](C[C@@H]1CCNC1=O)C(=O)C(=O)NC1CC1)OCc1ccccc1`, for which the CC50 in “in vitro [5]” and in “in vitro [6]” was over 100000 nM throughout. Further, it took 780 nM to reach half-maximal inhibition against SARS-CoV-2 M^pro (IC50).

Turning to `CC(C)C[C@H](NC(=O)OCc1ccccc1)C(=O)N[C@@H](CC1CCNC1=O)C(O)S(=O)(=O)O` (stereo partly shown) [GC-376], the IC50 against cathepsin L came to 4.4 nM; at calpain I it was 74 nM.

Regarding `CC1(C)C2CN(C(=O)OCc3ccccc3)C(C(=O)NC(C=O)CC3CCNC3=O)C21` (stereo not shown) [UAWJ9-36-3], the “antiviral activity against HCoV-NL63 in Vero E6 cells in the presence of P-gp inhibitor CP-100356” value with HCoV-NL63 is recorded as “increased”. Further, the EC50 came to 130 nM in the series with HCoV-229E and 59 nM in the series with HCoV-OC43.

As for `CC(C)C[C@H](NC(=O)OCc1ccc(NC(=O)CCC(=O)NCCOCCOCCNc2cccc3c2C(=O)N(C2CCC(=O)NC2=O)C3=O)cc1)C(=O)N[C@@H](C[C@@H]1CCNC1=O)C(=O)C(=O)NC1CC1` (stereo partly shown), the CC50 in series [3] and in series [4] was over 250000 nM each time. For the same compound, the IC50 was over 20000 nM against PL^pro and 110 nM against SARS-CoV-2 M^pro.

With `O=C(N[C@@H](Cc1ccc(F)cc1)C(=O)N[C@@H](C[C@@H]1CCNC1=O)C(=O)C(=O)NC1CC1)OCc1ccccc1`, the IC50 against SARS-CoV-2 M^pro turned out to be 5500 nM.

Consider `CC1(C)[C@@H]2C(C(=O)N[C@@H](C[C@@H]3CCNC3=O)C(=O)C(=O)NC3CC3)N(C(=O)OCc3ccccc3)C[C@@H]21` (stereo partly shown), for which the IC50 against SARS-CoV-2 M^pro came to 200 nM. The compound further returned a CC50 in “in vitro [2]” of over 250000 nM.

As for `CC(C)C[C@H](NC(=O)OCc1ccc(NC(=O)CCC(=O)NCCOCCOCCNc2cccc3c2C(=O)N(C2CCC(=O)N(C)C2=O)C3=O)cc1)C(=O)N[C@@H](C[C@@H]1CCNC1=O)C(=O)C(=O)NC1CC1` (stereo partly shown), at SARS-CoV-2 M^pro, the IC50 turned out to be 110 nM.

Compound `CCOC(=O)/C=C/[C@H](C[C@@H]1CCNC1=O)NC(=O)[C@H](CC(C)C)NC(=O)OCc1ccccc1` displayed an IC50 against SARS-CoV-2 M^pro of 1710 nM.

Consider `CC(C)C[C@H](NC(=O)OCc1ccccc1)C(=O)N[C@@H](C[C@@H]1CCNC1=O)C(=O)C(=O)NC1CC1`, for which the CC50 in the series “in vitro [5]” and in the series “in vitro [6]” was over 100000 nM in each case. Moreover, on SARS-CoV-2 M^pro (read-out: SARS-CoV-2 M^pro IC50, Table 2), the IC50 came out at 45 nM.

Consider `CC(C)C[C@H](NC(=O)OCc1ccccc1)C(=O)N[C@@H](CC(C)C)C(=O)N[C@@H](C[C@@H]1CCNC1=O)C(=O)C(=O)NC1CC1`, for which inhibition at SARS-CoV-2 M^pro was half-maximal at 12 nM (IC50).

As for `CC(C)[C@H](NC(=O)OCc1ccccc1)C(=O)N[C@@H](C[C@@H]1CCNC1=O)C(=O)C(=O)NC1CC1`, the IC50 against SARS-CoV-2 M^pro stood at 1290 nM.

Take `CC(C)C[C@H](NC(=O)[C@H](Cc1ccccc1)NC(=O)OCc1ccccc1)C(=O)N[C@@H](C[C@@H]1CCNC1=O)C(=O)C(=O)NCc1ccccc1`: the results for the IC50 at PL^pro and on SARS-CoV-2 M^pro were over 20000 nM and 90 nM, respectively.

On to `CC(C)C[C@H](NC(=O)[C@H](Cc1ccccc1)NC(=O)OCc1ccccc1)C(=O)N[C@@H](C[C@@H]1CCNC1=O)C(=O)C(=O)NC(C)C`, for which the IC50 is over 20000 nM against PL^pro and 130 nM against SARS-CoV-2 M^pro.

Compound `O=C(N[C@@H](Cc1ccccc1)C(=O)N[C@@H](C[C@@H]1CCNC1=O)C(O)S(=O)(=O)[O][Na+])OCc1ccccc1` (stereo partly shown) showed an IC50 at SARS-CoV-2 M^pro of 40 nM.

Turning to `COC(=O)C[C@H](NC(=O)[C@H](C)NC(=O)[C@@H](NC(=O)OCc1ccccc1)C(C)C)C(=O)CF` [Z-VAD-FMK] (Cbz-Val-Ala-Asp(OMe)-CH2F), 100 ± 40 nM corresponded to half-maximal inhibition against caspase-3 (IC50).

The compound `CC(C)C[C@H](NC(=O)[C@H](Cc1ccccc1)NC(=O)OCc1ccccc1)C(=O)N[C@@H](C[C@@H]1CCNC1=O)C(=O)C(=O)NC1CC1` returned an IC50 on SARS-CoV-2 M^pro of 13 nM.

Regarding `CC(C)C[C@H](NC(=O)[C@@H](NC(=O)OCc1ccccc1)C(C)C)C(=O)N[C@@H](C[C@@H]1CCNC1=O)C(=O)C(=O)NC1CC1`, the IC50 against SARS-CoV-2 M^pro worked out at 14 nM.

`O=CC(CC1CCNC1=O)NC(=O)C1C2CCCC2CN1C(=O)OCc1ccccc1` (stereo not shown) [UAWJ9-36-1]: the “antiviral activity against HCoV-NL63 in Vero E6 cells in the presence of P-gp inhibitor CP-100356” value with HCoV-NL63 is reported as “increased”. In addition, the “antiviral potency against SARS-CoV-2 relative to GC-376” value in the series with SARS-CoV-2 [7] is given as “less potent than GC-376”. Further, the figures for the EC50 in the series with HCoV-229E and in the series with HCoV-OC43 were 170 nM and 46 nM, respectively. The “melting temperature shift (ΔTm)” value in series [8] is reported as “significantly increased”.

As to `O=C(N[C@H](C(=O)N[C@@H](C[C@@H]1CCNC1=O)C(=O)C(=O)NC1CC1)C1CCCCC1)OCc1ccccc1`, the half-maximal inhibitory concentration (IC50) was over 20000 nM against PL^pro and 380 nM against SARS-CoV-2 M^pro.

At SARS-CoV-2 M^pro, `O=C(NC1CC1)C(=O)[C@H](C[C@@H]1CCNC1=O)NC(=O)C1[C@H]2CCC[C@H]2CN1C(=O)OCc1ccccc1` (stereo partly shown) yielded an IC50 of 130 nM. This compound displayed a CC50 in “in vitro [2]” of over 250000 nM.
